The test system of assay [1] is mice. The assay can be described thus: Antitussive test of Naringenin, spray by high concentration ammonia (Example 30). In kind it is in vivo. The note with it: for R Value: EDT50 of the treatment / EDT50 of the control x 100%; for EDT50: mice, oral, dose 0.2 (mg/20g), spray one hour later. An excerpt:
1. Animal: 120 healthy male mice weighing 19.5-22.1g was grouped into 8 groups random after labeled, which was selected from 130 male mice weighing 19.3-22.6g. Every group was 15 mice. Eight group were set including negative control group, positive control group, high dose group of Naringenin, middle dose group of Naringenin, low dose group of Naringenin, high dose group of sodium salt of Naringenin, middle dose group of sodium salt of Naringenin, low dose group of sodium salt of Naringenin.
• 1) Blank control group: physiological saline, 0.9% NaCl; • 2) Positive control group: 30mg Dextromethorphan Hydrobromide was dissolve into 20 ml physiological saline and the sample concentration was 1.5 mg/ml to obtain the solution for positive control. • 3) low dose group of Naringenin: weighting out the appropriate amount of Naringenin and dissolving it in physiological saline, then the sample concentration was 0.5 mg/ml. • 4) middle dose group of Naringenin: weighting out the appropriate amount of Naringenin and dissolving it in physiological saline, then the sample concentration was 1.5mg/ml. • 5) high dose group of Naringenin: weighting out the appropriate amount of Naringenin and dissolving it in physiological saline, then the sample concentration was 4.5 mg/ml. • 6) low dose group of sodium salt of Naringenin: weighting out the appropriate amount of sodium salt of Naringenin and dissolving it in physiological saline, then the sample concentration was 0.5 mg/ml. • 7) middle dose group of sodium salt of Naringenin: weighting out the appropriate amount of sodium salt of Naringenin and dissolving it in physiological saline, then the sample concentration was 1.5 mg/ml. • 8) high dose group of sodium salt of Naringenin: weighting out the appropriate amount of sodium salt of Naringenin and dissolving it in physiological saline, then the sample concentration was 4.5 mg/ml.
Animals were oral administered, and were sprayed one hour later. After the spray took out the animals and observed the tussive action. Observed the time of tussis in one minutes, if it appeared typical tussis three times in one minutes(shrinking the abdomen muscle or shrinking chest, puffing mouth at the same time, sometimes appearing tussive sound), we consider it "appearing tussis", otherwise "no tussis".
We calculated the spraying time that half of mice were tusisive by sequential method. And calculated the R, the drug was provided with effect of relieve a cough if R>130%. The drug was provided with remarkable effect of relieve a cough if R>150%. Underside is expressions: R=(EDT50 of the treatment)/(EDT50 of the control)× 100% [formula] EDT50=log^-1c/n ('n' is the number of animal, 'c' is the sum of 'rx' value, 'r' is the number of animal in every group, 'x' is the logarithm of dose(namely spray time).)

In assay [2] the test system is mice. The assay can be described thus: Dispel phlegm test of Naringin, Phenol Red excretion in trachea (Example 29). In kind it is in vivo. The note with it: for Dispel phlegm ratio: group given drug / blank control group x 100%; for Excretion quantity of Phenol Red / Rectified excretion quantity of Phenol Red: mice, oral, X±S; for Rectified excretion quantity of Phenol Red: excretion quantity / weight of animal. The method, then:
1. […] Every group was 10 animals. Eight group were set including negative control group, positive control group, high dose group of Naringin, middle dose group of Naringin, low dose group of Naringin, high dose group of sodium salt of Naringin, middle dose group of sodium salt of Naringin, low dose group of sodium salt of Naringin. […]
• 1) Blank control group: physiological saline, 0.9% NaCl; • 2) Positive control group: 0.2g Tankejing was dissolve into 10 ml physiological saline and the sample concentration was 20 mg/ml to obtain the solution for positive control. • 3) low dose group of Naringin: 0.5 mg/ml solution of Naringin was prepared by weighting out the appropriate amount of 5 mg Naringin and dissolving it by ultrasonication in 10 ml physiological saline. • 4) middle dose group of Naringin: 1.5 mg/ml solution of Naringin was prepared by weighting out the appropriate amount of 15 mg Naringin and dissolving it by ultrasonication in 10 ml physiological saline. • 5) high dose group of Naringin: 4.5 mg/ml solution of Naringin was prepared by weighting out the appropriate amount of 45 mg Naringin and dissolving it by ultrasonication in 10 ml physiological saline. • 6) low dose group of sodium salt of Naringin: 0.5 mg/ml solution of sodium salt of Naringin was prepared by weighting out the appropriate amount of 5 mg sodium salt of Naringin and dissolving it by ultrasonication in 10 ml physiological saline. • 7) middle dose group of sodium salt of Naringin: 1.5 mg/ml solution of sodium salt of Naringin was prepared by weighting out the appropriate amount of 15 mg sodium salt of Naringin and dissolving it by ultrasonication in 10 ml physiological saline. • 8) high dose group of sodium salt of Naringin: 4.5 mg/ml solution of sodium salt of Naringin was prepared by weighting out the appropriate amount of 45 mg sodium salt of Naringin and dissolving it by ultrasonication in 10 ml physiological saline.
The calibration curve was calculated by concentration of Phenol Red as y-axis and OD value as x-axis. And the excretion account of Phenol Red in mice was quantitated by calibration curve. • 2) Animals were fasted for 12 hr before dosing. • 3) Animals were oral administered with labeled number, each animal was administered with 3 min and each group was accomplished in 30 min. • 4) After administered 30 min, every animal was injected 2 ml 5% Phenol Red solution via celiac injection. The time of every animal was 3 min. • 5): Every animal was executed with 3 min interval after celiac injection 30 min, and animal trachea was peeled off with forceps after neck skin sniped, which was riveted on operating table. • 6): plasma and Phenol Red adhered to trachea ektexine was sweeped by 0.9% NaCl solution with an injector. And filter paper was used to blot up the solution. • 7): Scissors cut down the animal trachea including thyroid cartilage and trachea back-end. • 8): The trachea was set in test tube with 1.5 ml 5% NaHCO3. • 9): The experiment of every animal was completed in 3 min. […] X indicates OD value; Y indicates excretion account of Phenol Red. • 14): Rectified excretion account of Phenol Red was calculated by account of Phenol Red and weight of animal. Statistical significance of the data was determined by Student's t-test with SPSS 8.0. Rectified excretion account of Phenol Red= Account of Phenol Red (ng) / weight of animal (kg).

Structures can show the parent of a compound that is named as a salt.

The values below come from EP1591123A1, “USES OF NARINGENIN, NARINGIN AND SALTS THEREOF AS EXPECTORANTS IN THE TREATMENT OF COUGH, AND COMPOSITIONS THEREOF” (Su, Wei-wei, priority 2003, dated 2004).

For `O=C1CC(c2ccc(O)cc2)Oc2cc(O)cc(O)c21` (stereo not drawn) [Naringenin, 4', 5, 7 -trihydroxyflavanone], the results for the “R Value” in the assay with mice [1] (sample concentration 0.5 mg/ml), in the assay on mice [1] (sample concentration 1.5 mg/ml) and in the assay with mice [1] (sample concentration 4.5 mg/ml) were 131.85%, 169.85% and 171.23%, respectively. For the same compound, in the assay with mice [1] (compared with Dextromethorphan Hydrobromide (positive control group)), the “time of appearing tussis” value is given as “statistical significance prolonging the time”. Besides, the results for the EDT50 in the assay with mice [1] (sample concentration 0.5 mg/ml), with mice [1] (sample concentration 1.5 mg/ml) and in the assay with mice [1] (sample concentration 4.5 mg/ml) were 51.29 s, 66.07 s and 66.61 s, respectively. Also, the “Effect of relieving cough” value in the assay on mice [1] (sample concentration 0.5 mg/ml) is recorded as “effect (the drug was provided with effect of relieve a cough if R>130%)”; in the assay with mice [1] (sample concentration 1.5 mg/ml), “remarkably effect (The drug was provided with remarkable effect of relieve a cough if R>150%)”; in the assay with mice [1] (sample concentration 4.5 mg/ml), “remarkably effect (The drug was provided with remarkable effect of relieve a cough if R>150%)”.

On to `C[C@@H]1O[C@@H](O[C@H]2[C@H](Oc3cc(O)c4c(c3)O[C@H](c3ccc(O)cc3)CC4=O)O[C@H](CO)[C@@H](O)[C@@H]2O)[C@H](O)[C@H](O)[C@H]1O` [Naringin, 4', 5', 7-trihydroxyflavanone-7-rhamnoneglucoside], for which, in the assay on mice [2] (5 mg/kg), the Dispel phlegm ratio stood at 159.02%, the “Excretion quantity of Phenol Red” value was 0.4914 ± 0.2215 ng and the “Rectified excretion quantity of Phenol Red” value (shortened to “Rectified excretion quantity”) worked out at 25.5811 ± 11.8338 ng/kg. In addition, in the assay on mice [2] (15 mg/kg), the Dispel phlegm ratio was 173.12%, the “Excretion quantity of Phenol Red” value turned out to be 0.5296 ± 0.2195 ng and the “Rectified excretion quantity” value came to 26.7597 ± 13.1502 ng/kg. Besides, in the assay with mice [2] (45 mg/kg), the Dispel phlegm ratio is on record as 416.72%, the “Excretion quantity of Phenol Red” value is 1.1488 ± 0.2431 ng and the “Rectified excretion quantity” value is 64.4162 ± 18.7239 ng/kg. Also, the dispel phlegm effect result in the assay with mice [2] (high dose group compared to positive control group of Tankejing) is on record as “statistical better than Tankejing”. Further, the “exudates increase of mice trachea” value in the assay on mice [2] (three doses (low, middle, high), versus negative control group) is “statistical significance stimulate the exudates increase of mice trachea”.

On to `O=C1C[C@@H](c2ccc(O)cc2)Oc2cc(O)cc(O)c21` [sodium salt of Naringenin], for which, in the assay on mice [1] (sample concentration 0.5 mg/ml), the “R Value” is 142.3%, the EDT50 was 55.35 s and the “Effect of relieving cough” value is recorded as “effect (the drug was provided with effect of relieve a cough if R>130%)”. Besides, in the assay with mice [1] (sample concentration 1.5 mg/ml), the “R Value” is listed as 178.6%, the EDT50 came to 69.48 s and the “Effect of relieving cough” value is on record as “remarkably effect (The drug was provided with remarkable effect of relieve a cough if R>150%)”. Besides, in the assay on mice [1] (sample concentration 4.5 mg/ml), the “R Value” was 189.1%, the EDT50 is 73.56 s and the “Effect of relieving cough” value was “remarkably effect (The drug was provided with remarkable effect of relieve a cough if R>150%)”.

As for `C[C@@H]1O[C@@H](O[C@H]2[C@H](Oc3cc(O)c4c(c3)O[C@H](c3ccc(O)cc3)CC4=O)O[C@H](CO)[C@@H](O)[C@@H]2O)[C@H](O)[C@H](O)[C@H]1O` [sodium salt of Naringin], in the assay on mice [2] (5 mg/kg), the Dispel phlegm ratio is given as 169.37%, the “Excretion quantity of Phenol Red” value stood at 0.5250 ± 0.1265 ng and the “Rectified excretion quantity” value stood at 26.1805 ± 6.9069 ng/kg. For the same compound, in the assay with mice [2] (15 mg/kg), the Dispel phlegm ratio is 189.65%, the “Excretion quantity of Phenol Red” value stood at 0.5748 ± 0.1417 ng and the “Rectified excretion quantity” value was 29.3153 ± 7.7189 ng/kg. In the assay with mice [2] (45 mg/kg), the Dispel phlegm ratio is reported as 432.71%, the “Excretion quantity of Phenol Red” value was 1.3115 ± 0.3232 ng and the “Rectified excretion quantity” value came out at 66.8867 ± 17.6117 ng/kg.
